Tested on: 186277-243-T-J2-PDC complex spheroid viability
Assay: Anticancer human tumor 186277-243-T-J2-PDC patient-derived colon adenocarcinoma cell line growth inhibition [POLQ]
Details: for IC50: curve of first compound; for viability, T/C: stronger effect = lower value
How it was run: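 Three-cell-type spheroids modelling solid tumor plus stroma served as the readout system; POL inhibitors were tested individually and in combination, concentration ranges set by clinical Cmax where known.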

[1] = second compound 0.0316 µM, first compound 0.0316 µM
[2] = second compound 0.0316 µM, first compound 0.1 µM
[3] = second compound 0.0316 µM, first compound 0.316 µM
[4] = second compound 0.0316 µM, first compound 1 µM
[5] = second compound 0.1 µM, first compound 0.0316 µM
[6] = second compound 0.1 µM, first compound 0.1 µM
[7] = second compound 0.1 µM, first compound 0.316 µM
[8] = second compound 0.1 µM, first compound 1 µM
[9] = second compound 0.316 µM, first compound 0.0316 µM
[10] = second compound 0.316 µM, first compound 0.1 µM
[11] = second compound 0.316 µM, first compound 0.316 µM
[12] = second compound 0.316 µM, first compound 1 µM
[13] = second compound 1 µM, first compound 0.0316 µM
[14] = second compound 1 µM, first compound 0.1 µM
[15] = second compound 1 µM, first compound 0.316 µM
[16] = second compound 1 µM, first compound 1 µM
[17] = second compound 3.16 µM, first compound 0.0316 µM
[18] = second compound 3.16 µM, first compound 0.1 µM
[19] = second compound 3.16 µM, first compound 0.316 µM
[20] = second compound 3.16 µM, first compound 1 µM
[21] = second compound 10 µM, first compound 0.0316 µM
[22] = second compound 10 µM, first compound 0.1 µM
[23] = second compound 10 µM, first compound 0.316 µM
[24] = second compound 10 µM, first compound 1 µM
[25] = second compound 0.0316 µM, first compound 3.16 µM
[26] = second compound 0.0316 µM, first compound 10 µM
[27] = second compound 0.1 µM, first compound 3.16 µM
[28] = second compound 0.1 µM, first compound 10 µM
[29] = second compound 0.316 µM, first compound 3.16 µM
[30] = second compound 0.316 µM, first compound 10 µM
[31] = second compound 1 µM, first compound 3.16 µM
[32] = second compound 1 µM, first compound 10 µM
[33] = second compound 3.16 µM, first compound 3.16 µM
[34] = second compound 3.16 µM, first compound 10 µM
[35] = second compound 10 µM, first compound 3.16 µM
[36] = second compound 10 µM, first compound 10 µM
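Note: spheroids exposed to compounds for seven days.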
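Throughout, for viability, T/C: 100% = DMSO vehicle control viability.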

`C=CCn1c(=O)c2cnc(Nc3ccc(N4CCN(C)CC4)cc3)nc2n1-c1cccc(C(C)(C)O)n1` + Cc1cccc(N(C)C(=O)C2C(O)CCN2c2nc(C)cc(C(F)(F)F)c2C#N)c1 showed an IC50 (second compound 0.0316 µM) of 0.213 µM, an IC50 (second compound 0.1 µM) of 0.23 µM and an IC50 (second compound 0.316 µM) of 0.22 µM. For the same molecule, the IC50 (second compound 1 µM) was 0.226 µM, the IC50 (second compound 3.16 µM) was 0.223 µM and the IC50 (second compound 10 µM) was 0.224 µM. It also gave a viability, T/C (second compound 0.0316 µM, first compound 0.00316 µM) of 107%, a viability, T/C (second compound 0.0316 µM, first compound 0.01 µM) of 102% and a viability, T/C [1] of 88.4%. The viability, T/C [2] was 96.3%, the viability, T/C [3] was 25.9% and the viability, T/C [4] was 12.5%. For the same molecule, the viability, T/C (second compound 0.1 µM, first compound 0.00316 µM) was 99.1%, the viability, T/C (second compound 0.1 µM, first compound 0.01 µM) was 112% and the viability, T/C [5] was 95.3%. For the same molecule, the viability, T/C [6] was 106%, the viability, T/C [7] was 29.6% and the viability, T/C [8] was 13.7%. For the same molecule, the viability, T/C (second compound 0.316 µM, first compound 0.00316 µM) was 88.1%, the viability, T/C (second compound 0.316 µM, first compound 0.01 µM) was 99.4% and the viability, T/C [9] was 103%. For the same molecule, the viability, T/C [10] was 111%, the viability, T/C [11] was 26.6% and the viability, T/C [12] was 13.8%. It also gave a viability, T/C (second compound 1 µM, first compound 0.00316 µM) of 102%, a viability, T/C (second compound 1 µM, first compound 0.01 µM) of 119% and a viability, T/C [13] of 104%. For the same molecule, the viability, T/C [14] was 110%, the viability, T/C [15] was 25.7% and the viability, T/C [16] was 12.5%. It also gave a viability, T/C (second compound 3.16 µM, first compound 0.00316 µM) of 119%, a viability, T/C (second compound 3.16 µM, first compound 0.01 µM) of 95.7% and a viability, T/C [17] of 102%. The viability, T/C [18] was 131%, the viability, T/C [19] was 22.8% and the viability, T/C [20] was 16.8%. For the same molecule, the viability, T/C (second compound 10 µM, first compound 0.00316 µM) was 116%, the viability, T/C (second compound 10 µM, first compound 0.01 µM) was 102% and the viability, T/C [21] was 106%. The viability, T/C [22] was 106%, the viability, T/C [23] was 24.7% and the viability, T/C [24] was 12.8%.

`CCCS(=O)(=O)Nc1ccc(F)c(C(=O)c2c[nH]c3ncc(-c4ccc(Cl)cc4)cc23)c1F` + COC1C(OC(N)=O)C(O)C(Oc2ccc3c(O)c(NC(=O)c4ccc(O)c(CC=C(C)C)c4)c(=O)oc3c2C)OC1(C)C gave an IC50 (second compound 0.0316 µM) of 8.12 µM, an IC50 (second compound 0.1 µM) of 7.84 µM and an IC50 (second compound 0.316 µM) greater than 10 µM. The IC50 (second compound 1 µM) was 7.81 µM, the IC50 (second compound 3.16 µM) was 9.15 µM and the IC50 (second compound 10 µM) was greater than 10 µM. It also gave a viability, T/C [1] of 95%, a viability, T/C [2] of 90% and a viability, T/C [3] of 86.5%. It also gave a viability, T/C [4] of 93.4%, a viability, T/C [25] of 88.5% and a viability, T/C [26] of 41.5%. It also gave a viability, T/C [5] of 98.4%, a viability, T/C [6] of 76.9% and a viability, T/C [7] of 96.2%. It also gave a viability, T/C [8] of 79.7%, a viability, T/C [27] of 87.7% and a viability, T/C [28] of 39.9%. For the same molecule, the viability, T/C [9] was 91.4%, the viability, T/C [10] was 90.4% and the viability, T/C [11] was 89.7%. It also gave a viability, T/C [12] of 92.8%, a viability, T/C [29] of 101% and a viability, T/C [30] of 52%. The viability, T/C [13] was 91.2%, the viability, T/C [14] was 97.2% and the viability, T/C [15] was 86.6%. It also gave a viability, T/C [16] of 86.8%, a viability, T/C [31] of 97.6% and a viability, T/C [32] of 38.5%. For the same molecule, the viability, T/C [17] was 92.2%, the viability, T/C [18] was 96.6% and the viability, T/C [19] was 93.5%. The viability, T/C [20] was 90.6%, the viability, T/C [33] was 88% and the viability, T/C [34] was 46.7%. The viability, T/C [21] was 118%, the viability, T/C [22] was 89.7% and the viability, T/C [23] was 93.6%. The viability, T/C [24] was 94%, the viability, T/C [35] was 92% and the viability, T/C [36] was 50.3%.

`O=C(Nc1ccc(O)c(NS(=O)(=O)c2ccc(F)cc2)c1)c1ccc(-c2ccccc2)cc1` + Nc1ccc(C#CCN(C(=O)Cc2ncc(C(F)(F)F)cc2C(F)(F)F)c2ccc(F)cc2)nn1 showed an IC50 (second compound 0.0316 µM) greater than 10 µM, an IC50 (second compound 0.1 µM) greater than 10 µM and an IC50 (second compound 0.316 µM) greater than 10 µM. It also gave an IC50 (second compound 1 µM) greater than 10 µM, an IC50 (second compound 3.16 µM) greater than 10 µM and an IC50 (second compound 10 µM) greater than 10 µM. The viability, T/C [1] was 117%, the viability, T/C [2] was 91% and the viability, T/C [3] was 92.4%. The viability, T/C [4] was 89.4%, the viability, T/C [25] was 99.8% and the viability, T/C [26] was 110%. It also gave a viability, T/C [5] of 95.5%, a viability, T/C [6] of 88.8% and a viability, T/C [7] of 96.7%. The viability, T/C [8] was 86.5%, the viability, T/C [27] was 89.9% and the viability, T/C [28] was 98%. The viability, T/C [9] was 97.6%, the viability, T/C [10] was 96% and the viability, T/C [11] was 97.5%. It also gave a viability, T/C [12] of 96.7%, a viability, T/C [29] of 101% and a viability, T/C [30] of 107%. The viability, T/C [13] was 101%, the viability, T/C [14] was 96.3% and the viability, T/C [15] was 92.3%. It also gave a viability, T/C [16] of 81.9%, a viability, T/C [31] of 103% and a viability, T/C [32] of 99.9%. It also gave a viability, T/C [17] of 96.3%, a viability, T/C [18] of 80.8% and a viability, T/C [19] of 104%. The viability, T/C [20] was 96.7%, the viability, T/C [33] was 103% and the viability, T/C [34] was 95.9%. For the same molecule, the viability, T/C [21] was 103%, the viability, T/C [22] was 87.5% and the viability, T/C [23] was 91.2%. It also gave a viability, T/C [24] of 104%, a viability, T/C [35] of 97.2% and a viability, T/C [36] of 99.2%.

In the case of `CC(C)n1c(=O)n(C)c2cnc3cc(F)c(-c4ccc(OCCCN5CCCCC5)nc4)cc3c21` + COC1C(OC(N)=O)C(O)C(Oc2ccc3c(O)c(NC(=O)c4ccc(O)c(CC=C(C)C)c4)c(=O)oc3c2C)OC1(C)C, the IC50 (second compound 0.0316 µM) is reported as greater than 10 µM, the IC50 (second compound 0.1 µM) is reported as greater than 10 µM and the IC50 (second compound 0.316 µM) is reported as greater than 10 µM. The IC50 (second compound 1 µM) was greater than 10 µM, the IC50 (second compound 3.16 µM) was greater than 10 µM and the IC50 (second compound 10 µM) was greater than 10 µM. The viability, T/C [1] was 104%, the viability, T/C [2] was 97.4% and the viability, T/C [3] was 98.1%. It also gave a viability, T/C [4] of 93.2%, a viability, T/C [25] of 94.3% and a viability, T/C [26] of 116%. The viability, T/C [5] was 111%, the viability, T/C [6] was 87.2% and the viability, T/C [7] was 103%. The viability, T/C [8] was 101%, the viability, T/C [27] was 107% and the viability, T/C [28] was 92.2%. It also gave a viability, T/C [9] of 99.1%, a viability, T/C [10] of 98.3% and a viability, T/C [11] of 96.1%. The viability, T/C [12] was 97.9%, the viability, T/C [29] was 114% and the viability, T/C [30] was 108%. It also gave a viability, T/C [13] of 110%, a viability, T/C [14] of 93.7% and a viability, T/C [15] of 86.6%. For the same molecule, the viability, T/C [16] was 107%, the viability, T/C [31] was 101% and the viability, T/C [32] was 101%. For the same molecule, the viability, T/C [17] was 98.2%, the viability, T/C [18] was 95.2% and the viability, T/C [19] was 105%. The viability, T/C [20] was 106%, the viability, T/C [33] was 92.5% and the viability, T/C [34] was 102%. The viability, T/C [21] was 102%, the viability, T/C [22] was 109% and the viability, T/C [23] was 115%. It also gave a viability, T/C [24] of 115%, a viability, T/C [35] of 108% and a viability, T/C [36] of 89.8%.

— PubChem BioAssay AID1963854 (Molecular Pharmacology Branch, DTP, NCI, 2024)
